One test has as its target T1, HiBit-BRM fusion protein (Homo sapiens, UniProt P51531).
T1 construct: expressed in transfected cells
Briefly: HiBiT-BRM cell-based degradation assay (Nano-Glo HiBiT Lytic Detection, 24 h). The note with it: HeLa cells expressing HiBiT-BRM; for DC50: read-out: BRM HiBit Degradation IC50; for BRM HiBit Degradation Maximum measured: top dose 30 μM. In short, it runs like this:
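Percent BRM loss was derived from HiBiT luminescence relative to DMSO-treated cells and cells given 2 μM of a known BRM/BRG1 degrader. Treatment lasted 24 h in HiBiT-BRM HeLa cells, with a top final concentration of 30 μM.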
For orientation: With HiBiT, luminescence reflects the tagged protein that the partner subunit can reach.

Test [1] concerns the target T2, HiBit-BRG1 fusion protein (Homo sapiens, UniProt P51532).
T2 construct: expressed in transfected cells
Briefly: HiBiT-BRG1 cell-based degradation assay (Nano-Glo HiBiT Lytic Detection, 24 h). The note with it: HeLa cells expressing HiBit-BRG1 and LgBit; for DC50: read-out: BRG1 HiBit Degradation IC50; for Dmax: HeLa, top dose 30 μM, read-out: BRG1 HiBit Degradation Maximum measured. In short, it runs like this: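 Degradation is scaled from DMSO-treated cells (0%) to cells given 2 μM of a known BRM/BRG1 degrader (100%). HeLa cells stably carrying HiBiT-BRG1 plus LgBiT (5000/well) were lysed with Nano-Glo HiBiT detection reagent, shaken 10 min at RT, and luminescence read.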

3 compounds from patent publication US12662479B2 (Foghorn Therapeutics Inc., priority 2020, dated 2026) can be followed below.

The structures appear in SMILES notation.

T1 sequence (P51531 whole entry, the tested form may be a part): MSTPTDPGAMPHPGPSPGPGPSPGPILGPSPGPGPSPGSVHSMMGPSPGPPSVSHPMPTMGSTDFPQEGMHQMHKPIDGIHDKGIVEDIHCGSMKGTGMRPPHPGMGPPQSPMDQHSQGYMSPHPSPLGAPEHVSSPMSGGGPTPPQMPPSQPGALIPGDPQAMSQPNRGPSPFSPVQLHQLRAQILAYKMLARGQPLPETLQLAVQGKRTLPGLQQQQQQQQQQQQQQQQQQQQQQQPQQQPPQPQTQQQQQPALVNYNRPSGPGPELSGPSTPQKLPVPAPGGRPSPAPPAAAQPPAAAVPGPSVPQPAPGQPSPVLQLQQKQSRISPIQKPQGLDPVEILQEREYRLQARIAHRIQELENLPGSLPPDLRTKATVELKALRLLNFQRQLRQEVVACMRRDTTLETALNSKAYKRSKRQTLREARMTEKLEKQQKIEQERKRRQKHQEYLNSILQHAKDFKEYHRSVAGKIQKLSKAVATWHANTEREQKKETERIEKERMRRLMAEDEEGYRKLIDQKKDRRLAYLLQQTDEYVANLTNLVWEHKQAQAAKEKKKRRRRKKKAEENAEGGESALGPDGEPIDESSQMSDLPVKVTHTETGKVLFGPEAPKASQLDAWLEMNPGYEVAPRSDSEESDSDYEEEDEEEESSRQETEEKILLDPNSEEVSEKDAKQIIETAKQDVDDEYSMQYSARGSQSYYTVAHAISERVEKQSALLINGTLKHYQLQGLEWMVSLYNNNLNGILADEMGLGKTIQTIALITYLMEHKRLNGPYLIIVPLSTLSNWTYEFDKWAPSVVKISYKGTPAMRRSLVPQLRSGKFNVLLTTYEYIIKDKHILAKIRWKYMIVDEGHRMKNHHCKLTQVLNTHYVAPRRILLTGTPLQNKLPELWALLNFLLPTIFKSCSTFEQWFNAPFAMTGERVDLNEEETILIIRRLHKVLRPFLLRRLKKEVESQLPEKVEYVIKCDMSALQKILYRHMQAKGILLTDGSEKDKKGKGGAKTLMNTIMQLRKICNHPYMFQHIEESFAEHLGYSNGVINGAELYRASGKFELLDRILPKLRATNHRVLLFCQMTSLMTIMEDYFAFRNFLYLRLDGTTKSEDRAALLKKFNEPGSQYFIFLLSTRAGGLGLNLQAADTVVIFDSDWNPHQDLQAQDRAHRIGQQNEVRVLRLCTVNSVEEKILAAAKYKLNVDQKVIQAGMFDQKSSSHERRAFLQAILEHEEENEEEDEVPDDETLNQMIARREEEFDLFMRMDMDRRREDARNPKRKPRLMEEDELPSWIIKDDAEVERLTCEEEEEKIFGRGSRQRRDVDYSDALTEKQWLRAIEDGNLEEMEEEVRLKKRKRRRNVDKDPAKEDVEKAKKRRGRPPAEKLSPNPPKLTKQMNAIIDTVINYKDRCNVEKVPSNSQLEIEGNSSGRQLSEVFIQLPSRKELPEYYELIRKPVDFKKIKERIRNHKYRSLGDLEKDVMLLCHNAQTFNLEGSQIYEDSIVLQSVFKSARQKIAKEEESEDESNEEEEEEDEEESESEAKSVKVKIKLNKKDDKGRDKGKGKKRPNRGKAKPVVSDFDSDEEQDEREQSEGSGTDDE
T2 sequence (P51532 whole entry, the tested form may be a part): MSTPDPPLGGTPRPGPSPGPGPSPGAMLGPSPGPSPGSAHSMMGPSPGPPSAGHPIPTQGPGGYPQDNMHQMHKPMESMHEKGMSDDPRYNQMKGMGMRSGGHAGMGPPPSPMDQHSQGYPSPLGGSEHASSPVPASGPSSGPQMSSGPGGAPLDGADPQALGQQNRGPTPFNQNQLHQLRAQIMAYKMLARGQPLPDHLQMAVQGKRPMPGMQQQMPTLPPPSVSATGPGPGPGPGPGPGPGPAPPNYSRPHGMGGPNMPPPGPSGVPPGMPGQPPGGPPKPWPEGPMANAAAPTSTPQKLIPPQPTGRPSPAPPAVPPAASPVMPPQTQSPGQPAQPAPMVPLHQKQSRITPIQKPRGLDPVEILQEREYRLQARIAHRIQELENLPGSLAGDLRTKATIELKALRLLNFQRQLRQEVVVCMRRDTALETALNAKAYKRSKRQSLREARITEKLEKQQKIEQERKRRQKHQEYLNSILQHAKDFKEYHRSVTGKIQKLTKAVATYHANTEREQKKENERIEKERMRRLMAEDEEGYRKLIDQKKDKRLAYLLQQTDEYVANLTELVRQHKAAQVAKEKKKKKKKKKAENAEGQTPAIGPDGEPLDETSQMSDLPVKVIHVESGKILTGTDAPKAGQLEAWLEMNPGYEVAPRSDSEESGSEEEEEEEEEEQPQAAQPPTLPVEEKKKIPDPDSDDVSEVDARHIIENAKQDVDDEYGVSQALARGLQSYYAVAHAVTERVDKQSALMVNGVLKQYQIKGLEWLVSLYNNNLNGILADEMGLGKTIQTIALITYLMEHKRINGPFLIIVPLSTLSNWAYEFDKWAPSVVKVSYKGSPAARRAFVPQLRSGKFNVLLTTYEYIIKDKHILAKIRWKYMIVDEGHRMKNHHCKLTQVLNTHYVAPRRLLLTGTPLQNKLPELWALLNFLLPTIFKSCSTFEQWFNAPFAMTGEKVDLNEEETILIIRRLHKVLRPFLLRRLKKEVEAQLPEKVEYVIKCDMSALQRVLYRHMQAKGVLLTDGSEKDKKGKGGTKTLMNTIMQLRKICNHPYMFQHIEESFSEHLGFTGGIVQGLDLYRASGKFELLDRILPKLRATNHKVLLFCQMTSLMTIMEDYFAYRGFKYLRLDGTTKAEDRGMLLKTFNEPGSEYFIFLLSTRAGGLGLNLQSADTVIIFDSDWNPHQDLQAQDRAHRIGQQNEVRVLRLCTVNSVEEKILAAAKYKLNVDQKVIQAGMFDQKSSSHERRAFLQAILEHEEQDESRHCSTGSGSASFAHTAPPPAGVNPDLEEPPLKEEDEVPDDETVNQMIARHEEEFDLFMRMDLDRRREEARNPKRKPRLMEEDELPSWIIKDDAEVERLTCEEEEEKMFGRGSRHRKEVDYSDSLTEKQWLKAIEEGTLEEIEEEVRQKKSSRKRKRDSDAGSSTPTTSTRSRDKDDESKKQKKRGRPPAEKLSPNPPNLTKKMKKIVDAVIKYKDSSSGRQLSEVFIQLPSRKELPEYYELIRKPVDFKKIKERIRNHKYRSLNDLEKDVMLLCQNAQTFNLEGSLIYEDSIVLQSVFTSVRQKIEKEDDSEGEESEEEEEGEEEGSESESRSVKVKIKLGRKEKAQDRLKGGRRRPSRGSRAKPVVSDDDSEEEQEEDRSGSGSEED

Take `CS(=O)(=O)n1ccc(C(=O)N[C@@H](CCCCNC(=O)CCCCOc2cccc3c2C(=O)N(C2CCC(=O)NC2=O)C3=O)C(=O)Nc2nc(-c3ccccc3)cs2)c1` (stereo partly drawn) [Compound 295, (2S)-6-(5-[[2-(2,6-dioxopiperidin-3-yl)-1,3-dioxoisoindol-4-yl]oxy]pentanemido)-2-[(1-methanesulfonylpyrrol-3-yl)formamido]-N-(4-phenyl-1,3-thiazol-2-yl)hexanamide]: on HiBit-BRM fusion protein, the DC50 is above 10 µM and the “BRM HiBit Degradation Maximum measured” value is given as “C (‘C’ = Maximum degradation <50%)”. Further, in test [1], the DC50 was above 10 µM and the Dmax was below 50%.

Regarding `CS(=O)(=O)n1ccc(C(=O)N[C@@H](CCCCNC(=O)CCCCCCCCCCNc2cccc3c2C(=O)N(C2CCC(=O)NC2=O)C3=O)C(=O)Nc2nc(-c3ccccc3)cs2)c1` (stereo partly drawn) [Compound 296, 11-[[2-(2,6-dioxopiperidin-3-yl)-1,3-dioxoisoindol-4-yl]amino]-N-[(5S)-5-[(1-methanesulfonylpyrrol-3-yl)formamido]-5-[(4-phenyl-1,3-thiazol-2-yl)carbamoyl]pentyl]undecanamide], on HiBit-BRM fusion protein, the DC50 is above 10 µM and the “BRM HiBit Degradation Maximum measured” value was “C (‘C’ = Maximum degradation <50%)”. In test [1], the DC50 was above 10 µM and the Dmax was below 50%.

Turning to `CS(=O)(=O)n1ccc(C(=O)N[C@@H](CCCCNC(=O)CCN2CCN(c3ccc4c(c3)C(=O)N(C3CCC(=O)NC3=O)C4=O)CC2)C(=O)Nc2nc(-c3ccccc3)cs2)c1` (stereo partly drawn) [Compound 297, N-((2S)-6-(3-(4-(2-(2,6-dioxopiperidin-3-yl)-1,3-dioxoisoindolin-5-yl)piperazin-1-yl)propanamido)-1-oxo-1-((4-phenylthiazol-2-yl)amino)hexan-2-yl)-1-(methylsulfonyl)-1H-pyrrole-3-carboxamide], on HiBit-BRM fusion protein, the DC50 is above 10 µM and the “BRM HiBit Degradation Maximum measured” value is recorded as “C (‘C’ = Maximum degradation <50%)”. Also, in test [1], the DC50 was above 10 µM and the Dmax is below 50%.
